The text below walks through data of the NIST ThermoML archive (doi:10.1021/je401095k).

Molecules are shown by their SMILES. Numbers after ± are expanded uncertainties.

A short description of data set [1]: refractive index (Na D-line) (dimensionless). To be noted: 293.2 K; 101.33 kPa; Liquid; Standard Abbe refractometry.
For data set [2] the following is noted: 293.2 K; 101.33 kPa; Liquid; Vibrating tube method.

With `CC(=O)OCCC(C)C` [3-methylbutyl ethanoate], the refractive index in data set [1] is reported as 1.3976 ± 0.0008. Further, the mass density in data set [2] was 866.71 ± 0.24 kg/m3.

In the case of `CC(=O)CCC(C)C` [5-methyl-2-hexanone], in data set [1], the refractive index stood at 1.4051 ± 0.0008. For the same compound, the mass density in data set [2] came out at 887.92 ± 0.24 kg/m3. As for `CCCC(=O)O` [butanoic acid], in data set [1], the refractive index amounted to 1.3977 ± 0.0008. Also, in data set [2], the mass density came to 952.68 ± 0.23 kg/m3.

For the compound `O=CO` [formic acid], in data set [1], the refractive index came to 1.371 ± 0.0008. Further, the mass density in data set [2] was 1219.5 ± 0.42 kg/m3. As for `O` [water], the refractive index in data set [1] was found to be 1.3324 ± 0.0008.
